This is an account of results in patent US9550739B2, “Molecules having certain pesticidal utilities, and intermediates, compositions, and processes related thereto” (priority 2014, dated 2017).

Assay type in all cases: in vivo
Series [1] deals with Cabbage Looper (Trichoplusia ni, TRIPNI) ("CL"). Put plainly: Bioassays on Cabbage Looper (CL), 128-well diet tray assay. The settings on record: Trichoplusia ni, 168 h, read-out: CL % Control (or Mortality) rating. As for the experimental part:
(§1) Certain molecules disclosed in this document were tested against BAW and CEW using procedures described in the following examples. In the reporting of the results, the “BAW & CL Rating Table” was used (See Table Section).
Bioassays on CL were conducted using a 128-well diet tray assay. one to five second instar CL larvae were placed in each well (3 mL) of the diet tray that had been previously filled with 1 mL of artificial diet to which 50 μg/cm^2 of the test compound (dissolved in 50 μL of 90:10 acetone-water mixture) had been applied (to each of eight wells) and then allowed to dry. Trays were covered with a clear self-adhesive cover and held at 25° C., 14:10 light-dark for five to seven days. Percent mortality was recorded for the larvae in each well; activity in the eight wells was then averaged. The results are indicated in the table entitled “Table ABC: Biological Results” (See Table Section).

Series [2] has as its system Beet Armyworm (Spodoptera exigua, LAPHEG) ("BAW"). Put plainly: Bioassays on Beet Armyworm (BAW), 128-well diet tray assay. The settings on record: Spodoptera exigua, 168 h; second instar BAW larvae, 50 μg/cm^2 on artificial diet, five to seven days, 25° C.; read-out: BAW % Control (or Mortality) rating. As for the experimental part:
as §1
Bioassays on BAW were conducted using a 128-well diet tray assay. one to five second instar BAW larvae were placed in each well (3 mL) of the diet tray that had been previously filled with 1 mL of artificial diet to which 50 μg/cm^2 of the test compound (dissolved in 50 μL of 90:10 acetone-water mixture) had been applied (to each of eight wells) and then allowed to dry. Trays were covered with a clear self-adhesive cover and held at 25° C., 14:10 light-dark for five to seven days. Percent mortality was recorded for the larvae in each well; activity in the eight wells was then averaged. The results are indicated in the table entitled “Table ABC: Biological Results” (See Table Section).

The subject of series [3] is Yellow Fever Mosquito (Aedes aegypti, AEDSAE) ("YFM"). The settings on record: about 1 day-old larvae, 4000 ppm master solution diluted, 3 days, room temperature. The procedure:
Certain molecules disclosed in this document were tested against YFM using procedures described in the following paragraph. In the reporting of the results, the “YFM Rating Table” was used (See Table Section).
Master plates containing 400 μg of a molecule dissolved in 100 μL of dimethyl sulfoxide (DMSO) (equivalent to a 4000 ppm solution) are used. A master plate of assembled molecules contains 15 μL per well. To this plate, 135 μL of a 90:10 water:acetone mixture is added to each well. A robot (Biomek® NXP Laboratory Automation Workstation) is programmed to dispense 15 μL aspirations from the master plate into an empty 96-well shallow plate (“daughter” plate). There are 6 reps (“daughter” plates) created per master. The created daughter plates are then immediately infested with YFM larvae.
The day before plates are to be treated, mosquito eggs are placed in Millipore water containing liver powder to begin hatching (4 g. into 400 mL). After the daughter plates are created using the robot, they are infested with 220 μL of the liver powder/larval mosquito mixture (about 1 day-old larvae). After plates are infested with mosquito larvae, a non-evaporative lid is used to cover the plate to reduce drying. Plates are held at room temperature for 3 days prior to grading. After 3 days, each well is observed and scored based on mortality.

In general, mortality refers to the percentage killed. With `Cc1ccccc1-c1cc(F)cc(C(=O)Nc2ccc(-c3ncn(-c4ccc(OC(F)(F)F)cc4)n3)cc2)c1` [F39, 5-Fluoro-2′-methyl-N-(4-(1-(4-(trifluoromethoxy)phenyl)-1H-1,2,4-triazol-3-yl)phenyl)-[1,1′-biphenyl]-3-carboxamide], the mortality at 50 µg/cm2 in series [1] and in series [2] was 50 to 100% throughout. The “YFM % Control (or Mortality) rating” value in series [3] is given as “D (No activity noticed in this bioassay)”.

With `O=C(Nc1ccc(-c2ncn(-c3ccc(OC(F)(F)F)cc3)n2)cc1)c1cccc(-c2ccccc2)n1` [F27, 6-Phenyl-N-(4-(1-(4-(trifluoromethoxy)phenyl)-1H-1,2,4-triazol-3-yl)phenyl)picolinamide], the mortality at 50 µg/cm2 in series [1] was 0%; in series [2], 0 to 50%. Moreover, the “YFM % Control (or Mortality) rating” value in series [3] is given as “D (No activity noticed in this bioassay)”.

As for `COc1ccccc1-c1cc(C(=O)NCCc2ccc(-c3ncn(-c4ccc(OC(F)(F)F)cc4)n3)cc2)ccc1F` [F54, 6-Fluoro-2′-methoxy-N-(4-(1-(4-(trifluoromethoxy)phenyl)-1H-1,2,4-triazol-3-yl)phenethyl)-[1,1′-biphenyl]-3-carboxamide], the mortality at 50 µg/cm2 in series [1] and in series [2] was 50 to 100% throughout.

For the molecule `CC(=O)c1ccccc1-c1cccc(C(=O)Nc2ccc(-c3ncn(-c4ccc(OC(F)(F)C(F)(F)F)cc4)n3)cc2)c1` [F9, 2′-Acetyl-N-(4-(1-(4-(perfluoroethoxy)phenyl)-1H-1,2,4-triazol-3-yl)phenyl)-[1,1′-biphenyl]-3-carboxamide], the mortality at 50 µg/cm2 in series [1] and in series [2] was 50 to 100% each time. Also, in series [3], the “YFM % Control (or Mortality) rating” value is listed as “A (80-100)”.

As to `COc1ccccc1-c1cccc(C(=O)N(C)c2ccc(-c3ncn(-c4ccc(OC(F)(F)F)cc4)n3)cc2)c1` [F19, 2′-methoxy-N-methyl-N-(4-(1-(4-(trifluoromethoxy)phenyl)-1H-1,2,4-triazol-3-yl)phenyl)-[1,1′-biphenyl]-3-carboxamide], the mortality at 50 µg/cm2 in series [1] and in series [2] was 50 to 100% throughout. In addition, the “YFM % Control (or Mortality) rating” value in series [3] is “A (80-100)”.

`COc1ccccc1-c1cccc(C(=O)NCCc2ccc(-c3ncn(-c4ccc(OC(F)(F)F)cc4)n3)cc2)c1` [F50, 2′-methoxy-N-(4-(1-(4-(trifluoromethoxy)phenyl)-1H-1,2,4-triazol-3-yl)phenethyl)-[1,1′-biphenyl]-3-carboxamide]: the mortality at 50 µg/cm2 in series [1] and in series [2] was 50 to 100% in each case. Also, the “YFM % Control (or Mortality) rating” value in series [3] was “D (No activity noticed in this bioassay)”.

As to `COc1ccccc1-c1cc(C(=O)Nc2ccc(-c3ncn(-c4ccc(OC(F)(F)C(F)(F)F)cc4)n3)cc2)ccc1F` [F7, 6-Fluoro-2′-methoxy-N-(4-(1-(4-(perfluoroethoxy)phenyl)-1H-1,2,4-triazol-3-yl)phenyl)-[1,1′-biphenyl]-3-carboxamide], the mortality at 50 µg/cm2 in series [1] and in series [2] was 50 to 100% each time. In addition, the “YFM % Control (or Mortality) rating” value in series [3] is “D (No activity noticed in this bioassay)”.

For the molecule `Cc1ccccc1-c1cccc(C(=O)Nc2ccc(-c3ncn(-c4ccc(OC(F)(F)F)cc4)n3)cc2)c1` [F17, 2′-Methyl-N-(4-(1-(4-(trifluoromethoxy)phenyl)-1H-1,2,4-triazol-3-yl)phenyl)-[1,1′-biphenyl]-3-carboxamide], the mortality at 50 µg/cm2 in series [1] and in series [2] was 50 to 100% throughout. In series [3], the “YFM % Control (or Mortality) rating” value is given as “D (No activity noticed in this bioassay)”.

As for `Cc1ccccc1-c1cc(C(=O)Nc2ccc(-c3ncn(-c4ccc(C(F)(F)F)cc4)n3)cc2)ccc1F` [F58, 6-Fluoro-2′-methyl-N-(4-(1-(4-(trifluoromethyl)phenyl)-1H-1,2,4-triazol-3-yl)phenyl)-[1,1′-biphenyl]-3-carboxamide], the mortality at 50 µg/cm2 in series [1] and in series [2] was 50 to 100% throughout. The “YFM % Control (or Mortality) rating” value in series [3] is reported as “D (No activity noticed in this bioassay)”.
